Values after ≈ are worked out from the molar mass of the structure shown. Read-outs that look alike come from different tables or passages of the source.
Tests used:
S. aureus UC ® 9213 = assay: MIC by agar dilution, S. aureus UC 9213; format: cell-based; details: Staphylococcus aureus
Text: (§1) The oxazolidinone antibacterial agents of this invention have useful activity against a variety of organisms. The in vitro activity of compounds of this invention can be assessed by standard testing procedures such as the determination of minimum inhibitory concentration (MIC) by agar dilution as described in "Methods for Dilution Antimicrobial Susceptibility Tests for Bacteria That Grow Aerobically" (MFT) published January 1983 by the National Committee for Clinical Laboratory Standards, 771 East Lancaster Avenue, Villanova, Pa. 19084, USA. The activity of selected compounds of this invention against Staphylococcus aureus and Streptococcus pneumoniae are shown in Table 1.

S. pneumoniae UC® 9912 = assay: MIC by agar dilution, S. pneumoniae UC 9912; format: cell-based; details: Streptococcus pneumoniae
Text: as §1

[1] = UC9213, S. aureus UC 9213, in vitro, agar dilution, read-out: Minimum Inhibitory Concentration
[2] = UC9912, S. pneumoniae UC 9912, in vitro, agar dilution, read-out: Minimum Inhibitory Concentration

MIC (S. aureus UC ® 9213; [1]) [µg/mL] | MIC (S. pneumoniae UC® 9912; [2]) [µg/mL] | SMILES | MIC (S. aureus UC ® 9213; UC9213, read-out: Minimum Inhibitory Concentration) [µg/mL] | MIC (S. pneumoniae UC® 9912; UC9912, read-out: Minimum Inhibitory Concentration) [µg/mL]
 |  | CN[C@H](CC(C)C)C(=O)N[C@H]1C(=O)N[C@@H](CC(N)=O)C(=O)N[C@H]2C(=O)N[C@H]3C(=O)N[C@H](C(=O)N[C@H](C(=O)O)c4cc(O)cc(O)c4-c4cc3ccc4O)[C@H](O)c3ccc(c(Cl)c3)Oc3cc2cc(c3O[C@@H]2O[C@H](CO)[C@@H](O)[C@H](O)[C@H]2O[C@H]2C[C@](C)(N)[C@H](O)[C@H](C)O2)Oc2ccc(cc2Cl)[C@H]1O [vancomycin, reference compound] | 1 (≈ 0.69 µM) | 0.5 (≈ 0.345 µM)
4 (≈ 8.06 µM) | 2 (≈ 4.03 µM) | CC(=O)NC[C@H]1CN(c2ccc(N3C[C@H]4CN(C(=O)OCc5ccccc5)C[C@H]4C3)c(F)c2)C(=O)O1 [Example 1, (S)-N-[[3-[4-[cis-3-(carbobenzyloxy)-3,7-diazabicyclo[3.3.0]octan-7-yl]-3-fluorophenyl]-2-oxo-5-oxazolidinyl]methyl]acetamide] |  | 
8 (≈ 15.7 µM) | 1 (≈ 1.96 µM) | CC(=O)NC[C@H]1CN(c2ccc(N3C[C@H]4CN(C(=O)COCc5ccccc5)C[C@H]4C3)c(F)c2)C(=O)O1 [Example 2, (S)-N-[[3-[3-fluoro4-[cis-3-(benzyloxyacetyl)-3,7-diazabicyclo[3.3.0]octan-7-yl]phenyl]-2-oxo-5-oxazolidinyl]methyl]acetamide] |  | 
4 (≈ 9.51 µM) | < 0.5 | CC(=O)NC[C@H]1CN(c2ccc(N3C[C@H]4CN(C(=O)CO)C[C@H]4C3)c(F)c2)C(=O)O1 [Example 3, (S)-N-[[3-[3-fluoro4-[cis-3-(hydroxyacetyl)-3,7-diazabicyclo[3.3.0]octan-7-yl]phenyl]-2-oxo-5-oxazolidinyl]methyl]acetamide] |  | 

From patent US6090820A, “Spirocyclic and bicyclic diazinyl and carbazinyl oxazolidinones” (Pharmacia & Upjohn Company, priority 1997, dated 2000)
